# Experimental data from patent publication US20250032527A1, “MEDICAL USE OF N4-HYDROXY CITICOLINE COMPOUNDS” (IMMUNIC AG, priority 2021, published 2025).
# Where a name gives a salt, the structure may show the parent alone. Read-outs that look alike come from different tables or passages of the source.
# How the values were obtained:
# [1] = cited from earlier work
# [2] = Mouse pharmacokinetics, blood levels after single oral dose; assay type: in vivo, female C57BL/6 mice
# Description: The present study aimed at the determination of pharmacokinetic parameters of Example 2 and it's metabolites (NHC, NHC-MP, NHC-DP and NHC-TP) in blood after single dose oral administration of 96.5 μmol/kg to female C57BL/6 mice (body weight 20 to 21 g). Blood samples were obtained from the retrobulbar venous plexus into Li-Heparin tubes (Minivette POCT, […]). The vehicle for preparation of the dose formulations was PBS. The samples were analysed by high resolution LC-MS at Pharmacelsus GmbH, Germany.
# Microsomal stability = assay type: in vitro ADME; settings: compared to non-deuterated matched pair C26
# SARS-COV-2 = assay: microbe, parasite or virus in culture; assay type: cell-based; settings: for EC50: Severe acute respiratory syndrome coronavirus 2; for SI: SARS-COV-2, CC50/EC50
# RSV A2 = assay: RSV virus titers by endpoint titration (CCID50), mono and combination; assay type: cell-based; settings: MA-104 cells, virus control 4.0
# HRV-14 = HRV-14 virus titers by endpoint titration (CCID50), mono and combination; assay type: cell-based; settings: Hela cells, virus control 6.7
# in vitro = settings: human
# [3] = biological target: N-terminally truncated recombinant hDHODH enzyme (Homo sapiens, UniProt Q02127); assay: Human DHODH inhibition assay; assay type: biochemical; settings: pH 8.0, 30° C.
# Description: Briefly, the hDHODH concentration was adjusted in a way that an average slope of approximately 0.2 AU/min served as the positive control (e.g. without inhibitor). […] The reaction was started by adding dihydroorotate and measuring the absorption at 600 nm for 2 min. For the determination of the IC50 values, each data point was recorded in triplicate. For the determination of the inhibitory constant Ki, the KM values for DHO and decylubichinon were determined. Afterwards, the compounds were diluted in a dilution series depending on their IC50 values in DMSO. The dilution was: 0 ×IC50 , 1/4×IC50 , 1/2×IC50 , 1×IC50 , 2×IC50 , 4×IC50 . […] Each data point was recorded in duplicate.
# [4] = pH 7.4
# [5] = pH 7.4; remark: listed apart in the source
# physchem [6] = settings: pH 7.4, aqueous buffer, kinetic from dmso stock
# physchem [7] = settings: fassgf or other biorelevant, kinetic from dmso stock
# physchem [8] = settings: simulated gastric fluid
# physchem [9] = settings: pH 7.4
# [10] = A-B permeability (Caco-2, pH 6.5/7.4); settings: human, A-B, Caco-2, pH 6.5/7.4, test conc. 1.0E−05M
# [11] = B-A permeability (Caco-2, pH 6.5/7.4); settings: human, test conc. 1.0E−05M
# [12] = SARS-COV-2 viral replication (YFP), read-out: EC50
# [13] = metabolite in blood of mice after single oral 96.5 μmol/kg Example 2
# [14] = Caco-2, pH 6.5, Percent Recovery 1st
# [15] = Caco-2, pH 6.5, Percent Recovery 2nd
# [16] = Caco-2, pH 6.5, Percent Recovery Mean
# [17] = Caco-2, pH 6.5, Permeability 1st
# [18] = Caco-2, pH 6.5, Permeability 2nd
# [19] = Caco-2, pH 6.5, Permeability Mean
# Chain of N-terminally truncated recombinant hDHODH enzyme (Q02127 whole entry, looked up, the tested form may be a part): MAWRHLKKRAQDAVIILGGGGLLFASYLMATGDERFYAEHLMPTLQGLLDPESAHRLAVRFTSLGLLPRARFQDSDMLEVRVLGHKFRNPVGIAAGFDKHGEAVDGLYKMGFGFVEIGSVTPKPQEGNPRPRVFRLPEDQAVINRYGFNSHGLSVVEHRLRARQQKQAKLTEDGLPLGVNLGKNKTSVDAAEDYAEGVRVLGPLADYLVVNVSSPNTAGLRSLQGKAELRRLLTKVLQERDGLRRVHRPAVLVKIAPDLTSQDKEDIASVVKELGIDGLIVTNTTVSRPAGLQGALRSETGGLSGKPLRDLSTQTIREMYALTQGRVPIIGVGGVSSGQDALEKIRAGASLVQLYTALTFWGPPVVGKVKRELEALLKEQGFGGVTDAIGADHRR
structure (smiles),measurement,setting,value
"C[N+](C)(C)CCOP(=O)(O)OP(=O)([O-])OC[C@H]1O[C@@H](n2ccc(N)nc2=O)[C@H](O)[C@@H]1O [Citicoline, cytidine 5′-diphosphocholine]",oral bioavailability,[1],more than 90%
"C[N+](C)(C)CCOP(=O)(O)OP(=O)([O-])OC[C@H]1O[C@@H](n2ccc(NO)nc2=O)[C@H](O)[C@@H]1O [Example 2, 2-(((((((2R,3S,4R,5R)-3,4-Dihydroxy-5-(4-(hydroxyamino)-2-oxopyrimidin-1 (2H)-yl)tetrahydrofuran-2-yl)methoxy) (hydroxy)phosphoryl)oxy)oxidophosphoryl)oxy)-N,N,N-trimethylethan-1-aminium triethylammonium salt]",blood concentration of test item (lower limit of quantification),"[2]; mice, single oral 96.5 μmol/kg Example 2, not found in all blood samples",< 14.4 nM
"[2H]C([2H])([2H])Oc1cccc(-c2ccc(NC(=O)C3=C(C(=O)O)CCC3)c(F)c2)c1 [Example 50, 2-((3-Fluoro-3′-(methoxy-d3)-[1,1′-biphenyl]-4-yl)carbamoyl) cyclopent-1-ene-1-carboxylic acid]",microsomal stability,Microsomal stability,improved
same,EC50,SARS-COV-2,< 10 µM
same,RSV Virus Titers,RSV A2; Conc. 0.0079 μM,3.7 CCID50/mL (Log10)
same,RSV Virus Titers,RSV A2; Conc. 0.025 μM,3.7 CCID50/mL (Log10)
same,RSV Virus Titers,RSV A2; Conc. 0.079 μM,3.5 CCID50/mL (Log10)
same,RSV Virus Titers,RSV A2; Conc. 0.25 μM,3.5 CCID50/mL (Log10)
same,RSV Virus Titers,RSV A2; Conc. 0.79 μM,3.5 CCID50/mL (Log10)
same,RSV Virus Titers,RSV A2; Conc. 2.5 μM,2.0 CCID50/mL (Log10)
same,RSV Virus Titers,RSV A2; Conc. 7.9 μM,2.0 CCID50/mL (Log10)
same,RSV Virus Titers,RSV A2; Conc. 25 μM,<0.7 CCID50/mL (Log10)
same,HRV-14 Virus Titers,HRV-14; Conc. 0.0079 μM,6.7 CCID50/mL (Log10)
same,HRV-14 Virus Titers,HRV-14; Conc. 0.025 μM,6.7 CCID50/mL (Log10)
same,HRV-14 Virus Titers,HRV-14; Conc. 0.079 μM,7.0 CCID50/mL (Log10)
same,HRV-14 Virus Titers,HRV-14; Conc. 0.25 μM,6.7 CCID50/mL (Log10)
same,HRV-14 Virus Titers,HRV-14; Conc. 0.79 μM,6.7 CCID50/mL (Log10)
same,HRV-14 Virus Titers,HRV-14; Conc. 2.5 μM,7.0 CCID50/mL (Log10)
same,HRV-14 Virus Titers,HRV-14; Conc. 7.9 μM,4.0 CCID50/mL (Log10)
same,HRV-14 Virus Titers,HRV-14; Conc. 25 μM,3.5 CCID50/mL (Log10)
same,CC50,in vitro,> 100 µM
"[2H]C([2H])([2H])Oc1cccc(-c2cc(F)c(NC(=O)C3=C(C(=O)O)CCC3)c(F)c2)c1 [Example 51, 2-((3,5-Difluoro-3′-(methoxy-d3)-[1,1′-biphenyl]-4-yl)carbamoyl) cyclopent-1-ene-1-carboxylic acid]",SI,SARS-COV-2,>5
same,EC50,SARS-COV-2; [12],< 20 µM
same,CC50,in vitro,> 100 µM
"C[N+](C)(C)CCOP(=O)([O-])OP(=O)([O-])OC[C@H]1O[C@@H](n2ccc(N)nc2=O)[C@H](O)[C@@H]1O.[Na+] [Example C1, Citicoline sodium, reference compound]",SI,SARS-COV-2,inactive
same,EC50,SARS-COV-2; [12],> 50 µM
same,CC50,in vitro,> 100 µM
COc1cccc(C2=CCC=C(NC(=O)C3=C(C(=O)O)CCC3)C(F)=C2)c1 [Example C26],Ki,"[3]; substrate DHO varied, read-out: Ki (DHO)",0.592 µM
same,Ki,"[3]; substrate decylubichinon varied, read-out: Ki (decylubichinon)",0.245 µM
"O=c1nc(NO)ccn1[C@@H]1O[C@H](CO)[C@@H](O)[C@H]1O [NHC, β-D-N^4-hydroxycytidine]",Solubility 1st,[4],349.99 µM
same,Solubility 2nd,[4],362.05 µM
same,Solubility Mean,[4],> 200 µM
same,logD,[5],1.12
"O=c1nc(NO)ccn1[C@@H]1O[C@H](COP(=O)(O)OP(=O)(O)O)[C@@H](O)[C@H]1O [NHC-DP, β-D-N^4-hydroxycytidine 5′-diphosphate]",logD,[5],0.12
O=c1nc(NO)ccn1[C@@H]1O[C@H](COP(=O)(O)O)[C@@H](O)[C@H]1O [NHC-MP],AUC (0-inf),[2]; [13],1.624 µM·h
same,elimination half-life,[2]; [13],7.3 h
same,maximal blood concentration,[2]; [13],274+41.4 nM
same,time of maximal blood concentration post dose,[2]; [13],30 min
"O=c1nc(NO)ccn1[C@@H]1O[C@H](COP(=O)(O)OP(=O)(O)OP(=O)(O)O)[C@@H](O)[C@H]1O [NHC-TP, β-D-N^4-hydroxycytidine 5′-triphosphate, reference compound]",maximal blood concentration,[2]; [13],611+100 nM
same,time of maximal blood concentration post dose,[2]; [13],240 min
"CC(C)C(=O)OC[C@H]1O[C@@H](n2ccc(NO)nc2=O)[C@H](O)[C@@H]1O [molnupiravir, reference compound]",solubility,physchem [6]; Solubility 1st,247 µM
same,solubility,physchem [6]; Solubility 2nd,291 µM
same,solubility,physchem [6]; Solubility Mean,> 200 µM
same,solubility,physchem [7]; Solubility 1st,302 µM
same,solubility,physchem [7]; Solubility 2nd,329 µM
same,solubility,physchem [7]; Solubility Mean,> 200 µM
same,solubility,physchem [8]; Solubility 1st,258 µM
same,solubility,physchem [8]; Solubility 2nd,293 µM
same,solubility,physchem [8]; Solubility Mean,> 200 µM
same,logD,physchem [9],0.39
same,recovery at 10 µM,[10]; [14],70%
same,recovery at 10 µM,[10]; [15],71%
same,recovery at 10 µM,[10]; [16],71%
same,Papp at 10 µM,[10]; [17],0.19 ×10⁻⁶ cm/s
same,Papp at 10 µM,[10]; [18],0.13 ×10⁻⁶ cm/s
same,Papp at 10 µM,[10]; [19],0.2 ×10⁻⁶ cm/s
same,recovery at 10 µM,[11]; [14],90%
same,recovery at 10 µM,[11]; [15],89%
same,recovery at 10 µM,[11]; [16],89%
same,Papp at 10 µM,[11]; [17],0.26 ×10⁻⁶ cm/s
same,Papp at 10 µM,[11]; [18],0.27 ×10⁻⁶ cm/s
same,Papp at 10 µM,[11]; [19],0.3 ×10⁻⁶ cm/s
